Data as given in US20100215631A1, “ANTI-INFLAMMATORY COMPOSITION COMPRISING GLYCINE AND LACTOFERRIN AND THE USE THEREOF” (priority 2006, published 2010).

Tests used:
Balb/C mice = experiment: Zymosan-induced ear swelling in an inflammatory mouse model (Example 1); assay type: in vivo; details: daily gavage 0.1 mg lactoferrin and/or 50 mg glycine, versus non-supplemented mice
Description: Balb/C mice (8 weeks of age, Charles River, Maastricht, The Netherlands) were randomly assigned two control and three test groups and supplemented daily for three days with 0.1 mg lactoferrin (DMV, Veghel, The Netherlands), 50 mg glycine (Sigma, Zwijndrecht, The Netherlands) or a combination of both components (test groups 3, 4 and 5 respectively) or vehicle (control groups 1 and 2) was administered by gavage. At day two of the supplementation ear thickness was measured using a micrometer (Mitutoyo Digimatic, Veenendaal, The Netherlands) Subsequently 25 μl 0.5% zymosan (Sigma) in PBS (group 2-5) or vehicle (group 1) was injected subcutaneously in both ears. Ear thickness was measured 3, 6 and 24 hours (example 1) after injection after which the animals were sacrificed.
In mice injected in the ear with zymosan, lactoferrin (LF) and glycine (Gly) supplemented mice show a highest decrease in ear swelling when compared to non-supplemented mice, see Table 1. A clear synergistic effect of LF and Gly is observed.

TNF-α producing cells = experiment: Ex-vivo ELISpot of TNF-α producing spleen cells from supplemented mice with zymosan-induced ear inflammation (Example 2); assay type: in vivo; details: 1 μg/ml LPS, after three days of oral supplementation
Description: The spleen was removed and pushed through a cell strainer. Red blood cell lysis was performed in 5 ml of could lysis buffer (4.15 g NH4Cl, 0.5 g KHCO3 and 18.6 mg Na2EDTA in 1 liter water at pH 7,3) for 5 minutes. Cells were washed twice in could RPMI (Invitrogen, Merelbeke, Belgium) and after centrifugation diluted to a concentration of 1.10^7 cells/ml. TNF-α producing cells were detected by ELISpot assay in the absence or presence of 1 μg/ml lipopolysaccharide (Sigma) (example 2).
Spleen cells were collected from mice with a zymosan-induced inflammation in the ear after three days of oral supplementation with water (=control), lactoferrin (LF), glycine or a combination of LF and glycine. The number of TNF-α producing cells was determined using an ELISpot assay. LF and glycine inhibit the LPS stimulated number of TNF producing cells by 92% and 97% respectively (back to not zymosan treated control levels). The combination of glycine and lactoferrin inhibited the number of TNF-α positive cells 50% below the […] injected control. This unexpected high rate of inhibition makes the combination of glycine with lactoferrin an excellent choice for the treatment of inflammatory diseases.

Which results are given for `NCC(=O)O` [Glycine, glycine]?
Decrease in ear swelling (Balb/C mice; 3 hrs after zymosan injection in ears): 10 ± 16; Decrease in ear swelling (Balb/C mice; 6 hrs after zymosan injection in ears): 28 ± 20; Inhibition of the LPS stimulated number of TNF producing cells (TNF-α producing cells): 97%
